In patent publication US20250108026A1, “DROXIDOPA COMPOSITIONS AND METHODS” (XENAMED CORP., priority 2016, published 2025):
In brackets after ≈: the same amount, converted by molar mass.

Legend:
Format in all cases: physicochemical
[1] = Droxidopa solubility at room temperature at different pH
[2] = Stability of droxidopa dissolved in diluents of different pH (0.5 mg/ml, room temperature, UPLC); conditions: for Total degradation, 24-hour Exposure / Total degradation, 48-hour Exposure: room temperature, 0.5 mg/ml
Procedure: Droxidopa was dissolved in 5 diluents at different pH and stored at room temperature for 24 or 48 hours in sealed glass containers. All solutions were prepared at a nominal concentration of 0.5 mg/ml. Percent degradation was determined by ultra-performance liquid chromatography (UPLC) on a Waters ACQUITY UPLC with a photodiode array (PDA) detector using a Waters ACQUITY BEH C18 1.7 um 2.1×50 mm column. Run conditions for the analyses were as follows: • Mobile phase A: 50 mM sodium phosphate pH 3.0 • Mobile phase B: Acetonitrile • Detection wavelength: 279 nm • Flow: 0.5 ml/min • Column temperature: 30 C • Injection volume: 2 μl • Gradient (linear transitions) are shown in Table 12A: Identification of the known components droxidopa and dihydroxybenzaldehyde was confirmed through retention time and spectral match against pure materials of known identity. Degradation results were quantified as a percent area of degradation peaks versus total area of all degradation/droxidopa peaks. Results for pH 10.0 and pH 12.0 samples were estimated at >90% due to a significant number of peaks present near the retention time of droxidopa.

[3] = Stability of saturated droxidopa solutions at room temperature (UPLC); conditions: for Stability of saturated droxidopa in solution: room temperature over 24 days; for Total degradation, 7 day Exposure / Total degradation, 24 day Exposure: saturated solution
Procedure: Saturated solutions of droxidopa were prepared in 3 diluents at different pH and stored at room temperature for up to 24 days in sealed containers. All solutions were prepared with an excess of droxidopa by combining 10 mg droxidopa per ml of diluent. Exposed samples were filtered and degradation as a percent of initial droxidopa amount was determined by ultra-performance liquid chromatography (UPLC) on a Waters ACQUITY UPLC with a photodiode array (PDA) detector using a Waters ACQUITY HSS PFP 1.8 μm 2.1×100 mm column. Run conditions for the analyses were as follows: • Mobile phase A: 50 mM ammonium formate pH 3.0 • Mobile phase B: Acetonitrile • Detection wavelength: 279 nm • Flow: 0.5 ml/min • Column temperature: 30 C • Injection volume: 1 μl • Gradient (linear transitions) are shown in Table 12B: […]

[4] = Solid state stability of droxidopa with pH modifiers under accelerated conditions 70° C./75% RH
Procedure: Droxidopa is stable in acidic solution, but degrades in neutral or alkaline conditions. […] When citric acid was present with the drug in solid state, e.g. powder or uncoated granules, droxidopa became unstable under accelerated conditions 70° C./75% RH. When these droxidopa granules/pellets were coated with a protective layer, and blended with citric acid, the drug degradation was reduced. Furthermore, a pH modifier monosodium citrate was used instead of citric acid and blended with droxidopa granules. Droxidopa was stable for 7 days under accelerated conditions 70° C./75% RH. […] Thus, salt based pH modifiers can be used to improve the stability of the droxidopa.

[5] = pH 3, 50 mM NaH2PO4 adjusted to pH 3.0 with Phosphoric acid
[6] = pH 7, 50 mM NaH2PO4 adjusted to pH 7.0 with 1N Sodium hydroxide
[7] = 16 mmol citric acid, room temperature
[8] = 16 mmol disodium citrate combined with 16 mmol citric acid to achieve pH 4.0, room temperature

Compound: N[C@H](C(=O)O)[C@H](O)c1ccc(O)c(O)c1 [droxidopa, (−)-threo-3-(3,4-Dihydroxyphenyl)-L-serine]
- solubility ([1]; solution of pH 1.2 (composition not stated), pH 1.2, simulated gastric fluid): 15500 µg/mL (≈ 72.7 mM)
- solubility ([1]; solution of pH 3.0 (composition not stated), pH 3, aqueous buffer): 2620 µg/mL (≈ 12.3 mM)
- solubility ([1]; solution of pH 4.5 (composition not stated), pH 4.5, aqueous buffer): 2350 µg/mL (≈ 11 mM)
- solubility ([1]; solution of pH 5.5 (composition not stated), pH 5.5, aqueous buffer): 2300 µg/mL (≈ 10.8 mM)
- solubility ([1]; solution of pH 6.8 (composition not stated), pH 6.8, aqueous buffer): 2470 µg/mL (≈ 11.6 mM)
- Stability in solution ([2]; acidic solution): stable
- Stability in solution ([2]; neutral or alkaline conditions): degrades
- Total degradation, 24-hour Exposure ([2]; pH 1.2, 0.1N HCl): <0.05%
- Total degradation, 48-hour Exposure ([2]; pH 1.2, 0.1N HCl): <0.05%
- Total degradation, 24-hour Exposure [2, 5]: <0.05%
- Total degradation, 48-hour Exposure [2, 5]: <0.05%
- Total degradation, 24-hour Exposure [2, 6]: 0.39%
- Total degradation, 48-hour Exposure [2, 6]: 1.23%
- Total degradation, 24-hour Exposure ([2]; pH 10, 25 mM HCO2NH4 adjusted to pH 10.0 with NH4OH, estimated): >90%
- Total degradation, 24-hour Exposure ([2]; pH 12, 0.01N NaOH, estimated): >90%
- Stability of saturated droxidopa in solution ([3]; citrate buffer (pH 4.0)): stable
- Stability of saturated droxidopa in solution ([3]; citric acid solution (pH 2.5)): stable
- Total degradation, 7 day Exposure [3, 7]: 0.0%
- Total degradation, 24 day Exposure [3, 7]: 0.1%
- Total degradation, 7 day Exposure [3, 8]: 0.0%
- Total degradation, 24 day Exposure [3, 8]: 0.1%
- Total degradation, 7 day Exposure ([3]; Deionized water, room temperature): 0.1%
- Solid state stability ([4]; citric acid present with the drug in solid state (powder or uncoated granules)): unstable
- Solid state stability ([4]; droxidopa granules blended with monosodium citrate, 7 days): stable
- Drug degradation in solid state ([4]; granules/pellets coated with a protective layer and blended with citric acid): reduced
